27 compounds from patent publication US9765060B2 (Gilead Sciences, Inc., priority 2014, dated 2017) can be followed below.

The structures appear in SMILES notation.

In the first test the target is PI3K isoform δ (Homo sapiens (Human), UniProt O00329). Description: TR-FRET assay of enzymatic activity of class I PI3K isoforms.
Sequence of PI3K isoform δ (O00329 whole entry, canonical isoform): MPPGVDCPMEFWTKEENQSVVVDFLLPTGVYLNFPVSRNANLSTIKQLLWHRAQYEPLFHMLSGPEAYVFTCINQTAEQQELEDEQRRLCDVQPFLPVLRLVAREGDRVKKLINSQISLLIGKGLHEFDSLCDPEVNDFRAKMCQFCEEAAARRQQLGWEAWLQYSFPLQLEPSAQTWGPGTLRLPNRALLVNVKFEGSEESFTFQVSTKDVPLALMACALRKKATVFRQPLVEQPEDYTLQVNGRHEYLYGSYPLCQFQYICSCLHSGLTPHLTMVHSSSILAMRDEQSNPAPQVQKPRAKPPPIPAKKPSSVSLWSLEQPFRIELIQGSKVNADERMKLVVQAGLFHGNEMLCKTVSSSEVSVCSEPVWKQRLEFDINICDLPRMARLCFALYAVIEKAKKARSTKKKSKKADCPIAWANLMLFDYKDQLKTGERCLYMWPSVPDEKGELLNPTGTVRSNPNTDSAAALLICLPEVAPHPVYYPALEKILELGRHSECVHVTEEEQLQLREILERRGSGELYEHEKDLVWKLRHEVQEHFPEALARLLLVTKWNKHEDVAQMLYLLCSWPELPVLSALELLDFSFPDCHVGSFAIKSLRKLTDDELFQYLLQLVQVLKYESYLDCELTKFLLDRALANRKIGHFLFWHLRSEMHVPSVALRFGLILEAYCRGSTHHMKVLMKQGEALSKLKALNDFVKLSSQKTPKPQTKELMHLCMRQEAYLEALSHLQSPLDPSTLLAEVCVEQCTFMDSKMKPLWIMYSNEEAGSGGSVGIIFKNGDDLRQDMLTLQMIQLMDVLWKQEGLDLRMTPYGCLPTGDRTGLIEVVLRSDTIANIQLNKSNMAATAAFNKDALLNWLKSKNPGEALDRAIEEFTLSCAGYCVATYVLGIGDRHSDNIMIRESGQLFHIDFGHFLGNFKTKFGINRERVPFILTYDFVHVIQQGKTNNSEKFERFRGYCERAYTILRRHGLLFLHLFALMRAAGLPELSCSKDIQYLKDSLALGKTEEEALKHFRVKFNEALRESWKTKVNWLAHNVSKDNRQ
Sequence of PI3K isoform δ (P27986 whole entry partner, canonical isoform): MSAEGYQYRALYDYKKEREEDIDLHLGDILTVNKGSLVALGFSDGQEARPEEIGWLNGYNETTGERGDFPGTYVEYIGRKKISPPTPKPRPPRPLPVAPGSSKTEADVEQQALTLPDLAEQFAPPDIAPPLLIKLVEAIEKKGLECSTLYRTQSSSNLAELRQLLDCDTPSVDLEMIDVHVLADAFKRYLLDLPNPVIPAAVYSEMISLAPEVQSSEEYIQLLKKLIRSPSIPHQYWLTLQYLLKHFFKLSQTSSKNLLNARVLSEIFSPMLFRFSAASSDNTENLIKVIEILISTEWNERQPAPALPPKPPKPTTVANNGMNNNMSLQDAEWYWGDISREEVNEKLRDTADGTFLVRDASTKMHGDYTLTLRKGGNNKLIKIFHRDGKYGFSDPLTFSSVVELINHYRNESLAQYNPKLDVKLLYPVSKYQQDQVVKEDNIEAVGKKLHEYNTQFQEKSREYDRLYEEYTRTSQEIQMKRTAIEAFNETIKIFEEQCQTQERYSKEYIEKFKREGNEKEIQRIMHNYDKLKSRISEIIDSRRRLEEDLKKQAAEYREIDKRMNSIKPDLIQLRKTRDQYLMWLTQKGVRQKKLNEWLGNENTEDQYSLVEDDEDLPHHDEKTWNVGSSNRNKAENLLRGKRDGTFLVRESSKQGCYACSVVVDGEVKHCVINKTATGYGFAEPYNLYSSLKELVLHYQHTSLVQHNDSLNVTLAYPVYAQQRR
Conditions: not given
A word on the IC50: it is the point on the concentration scale where inhibition reaches its midpoint. Compound `N#Cc1c(N)nc(N)nc1N1CCC[C@H]1c1nc2cccc(S(=O)(=O)c3ccccc3)c2c(=O)n1-c1cccc(F)c1` [Compound 77] came in with an IC50 of 2 nM.

The same test, now with this note: read-out: IC50 (nM) for PI3K isoform δ (Table 3); TR-FRET; 2× Km ATP, 2 μM PIP2; incubated for 30 minutes at 25° C.
In the case of `CC1COCC(C)N1CCCc1cccc2nc([C@H](C)Nc3nc(N)nc(N)c3C#N)n(-c3ccccc3)c(=O)c12` (stereo partly drawn) [Compound 49, 2,4-diamino-6-(((1S)-1-(5-(3-(3,5-dimethylmorpholino)propyl)-4-oxo-3-phenyl-3,4-dihydroquinazolin-2-yl)ethyl)amino)pyrimidine-5-carbonitrile], the half-inhibitory concentration (IC50) is 1.4 nM. The same measure, in the same setting: with `C[C@H](Nc1nc(N)nc(N)c1C#N)c1nc2c(F)ccc(CCCN3CCCC3)c2c(=O)n1-c1ccccc1` [Compound 50, (S)-2,4-diamino-6-((1-(8-fluoro-4-oxo-3-phenyl-5-(3-(pyrrolidin-1-yl)propyl)-3,4-dihydroquinazolin-2-yl)ethyl)amino)pyrimidine-5-carbonitrile] the figure was 1.3 nM; with `C[C@H](Nc1nc(N)nc(N)c1C#N)c1nc2cccc(CCCN3CCCC3)c2c(=O)n1-c1cc(F)cc(F)c1` [Compound 51, (S)-2,4-diamino-6-((1-(3-(3,5-difluorophenyl)-4-oxo-5-(3-(pyrrolidin-1-yl)propyl)-3,4-dihydroquinazolin-2-yl)ethyl)amino)pyrimidine-5-carbonitrile], 3 nM; with `C[C@H](Nc1nc(N)nc(N)c1C#N)c1nc2cccc(CCCN3CCOC(C)(C)C3)c2c(=O)n1-c1ccccc1` [Compound 52, (S)-2,4-diamino-6-((1-(5-(3-(2,2-dimethylmorpholino)propyl)-4-oxo-3-phenyl-3,4-dihydroquinazolin-2-yl)ethyl)amino)pyrimidine-5-carbonitrile], 0.7 nM. `C[C@H](Nc1nc(N)nc(N)c1C#N)c1nc2cccc(CCCN3CCOCC3(C)C)c2c(=O)n1-c1ccccc1` [Compound 53, (S)-2,4-diamino-6-((1-(5-(3-(3,3-dimethylmorpholino)propyl)-4-oxo-3-phenyl-3,4-dihydroquinazolin-2-yl)ethyl)amino)pyrimidine-5-carbonitrile]: the half-inhibitory concentration (IC50) came out at 0.7 nM. The same measure, in the same setting: with `C[C@H](Nc1nc(N)nc(N)c1C#N)c1nc2cccc(CCCN3CC(F)(F)OC(F)(F)C3)c2c(=O)n1-c1ccccc1` [Compound 54, (S)-2,4-diamino-6-((1-(4-oxo-3-phenyl-5-(3-(2,2,6,6-tetrafluoromorpholino)propyl)-3,4-dihydroquinazolin-2-yl)ethyl)amino)pyrimidine-5-carbonitrile] the figure was 0.5 nM; with `C[C@H](Nc1nc(N)nc(N)c1C#N)c1nc2c(F)ccc(CCCN3CCC(F)(F)C3)c2c(=O)n1-c1ccccc1` [Compound 55, (S)-2,4-diamino-6-((1-(5-(3-(3,3-difluoropyrrolidin-1-yl)propyl)-8-fluoro-4-oxo-3-phenyl-3,4-dihydroquinazolin-2-yl)ethyl)amino)pyrimidine-5-carbonitrile], 0.4 nM; with `N#Cc1c(N)nc(N)nc1N[C@H](c1nc2cccc(CCCN3CCCC3)c2c(=O)n1-c1ccccc1)C1CC1` [Compound 56, (S)-2,4-diamino-6-((cyclopropyl(4-oxo-3-phenyl-5-(3-(pyrrolidin-1-yl)propyl)-3,4-dihydroquinazolin-2-yl)methyl)amino)pyrimidine-5-carbonitrile], 3 nM.

In the case of `N#Cc1c(N)nc(N)nc1N[C@H](c1nc2cccc(CCCN3CCCCC3)c2c(=O)n1-c1ccccc1)C1CC1` [Compound 57, (S)-2,4-diamino-6-((cyclopropyl(4-oxo-3-phenyl-5-(3-(piperidin-1-yl)propyl)-3,4-dihydroquinazolin-2-yl)methyl)amino)pyrimidine-5-carbonitrile], the IC50 was 1.4 nM. Still for that read-out and setting: with `N#Cc1c(N)nc(N)nc1N[C@H](c1nc2c(F)ccc(CCCN3CCCC3)c2c(=O)n1-c1ccccc1)C1CC1` [Compound 58, (S)-2,4-diamino-6-((cyclopropyl(8-fluoro-4-oxo-3-phenyl-5-(3-(pyrrolidin-1-yl)propyl)-3,4-dihydroquinazolin-2-yl)methyl)amino)pyrimidine-5-carbonitrile] the figure was 3 nM; with `N#Cc1c(N)nc(N)nc1N[C@H](c1nc2c(F)ccc(CCCN3CCCCC3)c2c(=O)n1-c1ccccc1)C1CC1` [Compound 59, (S)-2,4-diamino-6-((cyclopropyl(8-fluoro-4-oxo-3-phenyl-5-(3-(piperidin-1-yl)propyl)-3,4-dihydroquinazolin-2-yl)methyl)amino)pyrimidine-5-carbonitrile], 2 nM.

With `N#Cc1c(Cl)nc(N)nc1N[C@H](c1nc2cccc(CCCN3CCCC3)c2c(=O)n1-c1ccccc1)C1CC1` [Compound 60, (S)-2-amino-4-chloro-6-((cyclopropyl(4-oxo-3-phenyl-5-(3-(pyrrolidin-1-yl)propyl)-3,4-dihydroquinazolin-2-yl)methyl)amino)pyrimidine-5-carbonitrile], the IC50 came out at 6 nM. The same measure, in the same setting: for `C[C@H](Nc1nc(N)nc(N)c1C#N)c1nc2cccc(CCCN3CC4(COC4)C3)c2c(=O)n1-c1ccccc1` [Compound 62, (S)-4-((1-(5-(3-(2-oxa-6-azaspiro[3.3]heptan-6-yl)propyl)-4-oxo-3-phenyl-3,4-dihydroquinazolin-2-yl)ethyl)amino)-2,6-diaminopyrimidine-5-carbonitrile] the value was 0.8 nM; for `C[C@H](Nc1nc(N)nc(N)c1C#N)c1nc2cccc(CCCN3CCC4(COC4)C3)c2c(=O)n1-c1ccccc1` [Compound 63, (S)-4-((1-(5-(3-(2-oxa-6-azaspiro[3.4]octan-6-yl)propyl)-4-oxo-3-phenyl-3,4-dihydroquinazolin-2-yl)ethyl)amino)-2,6-diaminopyrimidine-5-carbonitrile], 0.8 nM; for `C[C@H](Nc1nc(N)nc(N)c1C#N)c1nc2cccc(CCCN3CCC4(CC3)COC4)c2c(=O)n1-c1ccccc1` [Compound 64, (S)-4-((1-(5-(3-(2-oxa-7-azaspiro[3.5]nonan-7-yl)propyl)-4-oxo-3-phenyl-3,4-dihydroquinazolin-2-yl)ethyl)amino)-2,6-diaminopyrimidine-5-carbonitrile], 30 nM. On to `C[C@H](Nc1nc(N)nc(N)c1C#N)c1nc2cccc(CCCC3CCCCC3)c2c(=O)n1-c1ccccc1` [Compound 65, (S)-2,4-diamino-6-((1-(5-(3-cyclohexylpropyl)-4-oxo-3-phenyl-3,4-dihydroquinazolin-2-yl)ethyl)amino)pyrimidine-5-carbonitrile], for which the IC50 came to 15 nM.

In the case of `C[C@H](Nc1nc(N)nc(Cl)c1C#N)c1nc2c(F)ccc(Cl)c2c(=O)n1-c1ccccc1` [Compound 66, (S)-2-amino-4-chloro-6-((1-(5-chloro-8-fluoro-4-oxo-3-phenyl-3,4-dihydroquinazolin-2-yl)ethyl)amino)pyrimidine-5-carbonitrile], the 50% inhibitory concentration (IC50) is 0.7 nM.

For the compound `N#Cc1c(N)nc(N)nc1N1CC[C@H]1c1nc2cccc(Cl)c2c(=O)n1-c1cc(F)cc(F)c1` [Compound 67, (S)-2,4-diamino-6-(2-(5-chloro-3-(3,5-difluorophenyl)-4-oxo-3,4-dihydroquinazolin-2-yl)azetidin-1-yl)pyrimidine-5-carbonitrile], the IC50 stood at 110 nM. For the compound `N#Cc1c(N)nc(N)nc1N1CC[C@H]1c1nc2cccc(Cl)c2c(=O)n1-c1ccccc1` [Compound 68, (S)-2,4-diamino-6-(2-(5-chloro-4-oxo-3-phenyl-3,4-dihydroquinazolin-2-yl)azetidin-1-yl)pyrimidine-5-carbonitrile], the IC50 was 30 nM. The same measure, in the same setting: for `C[C@H](Nc1nc(N)nc(N)c1C#N)c1nc2cccc(CCCC(=O)O)c2c(=O)n1-c1ccccc1` [Compound 69, (S)-4-(2-(1-((2,6-diamino-5-cyanopyrimidin-4-yl)amino)ethyl)-4-oxo-3-phenyl-3,4-dihydroquinazolin-5-yl)butanoic acid] the value was 1 nM; for `N#Cc1c(N)nc(N)nc1N1CCC[C@H]1c1nc2cccc(CCCC(=O)O)c2c(=O)n1-c1ccccc1` [Compound 70, (S)-4-(2-(1-(2,6-diamino-5-cyanopyrimidin-4-yl)pyrrolidin-2-yl)-4-oxo-3-phenyl-3,4-dihydroquinazolin-5-yl)butanoic acid], 3 nM. Still for that read-out and setting: for `C[C@H](Nc1nc(N)nc(N)c1C#N)c1nc2cccc(CCCC(=O)O)c2c(=O)n1-c1cc(F)cc(F)c1` [Compound 71, (S)-4-(2-(1-((2,6-diamino-5-cyanopyrimidin-4-yl)amino)ethyl)-3-(3,5-difluorophenyl)-4-oxo-3,4-dihydroquinazolin-5-yl)butanoic acid] the value was 2 nM; for `CS(=O)(=O)c1cccc2nc([C@@H]3CCCN3c3nc(N)nc(N)c3C#N)n(-c3cccc(F)c3)c(=O)c12` [Compound 72, (S)-2,4-diamino-6-(2-(3-(3-fluorophenyl)-5-(methylsulfonyl)-4-oxo-3,4-dihydroquinazolin-2-yl)pyrrolidin-1-yl)pyrimidine-5-carbonitrile], 4 nM; for `CS(=O)(=O)c1cccc2nc([C@@H]3CCCN3c3nc(N)nc(N)c3C#N)n(-c3c(F)cccc3F)c(=O)c12` [Compound 75, (S)-2,4-diamino-6-(2-(3-(2,6-difluorophenyl)-5-(methylsulfonyl)-4-oxo-3,4-dihydroquinazolin-2-yl)pyrrolidin-1-yl)pyrimidine-5-carbonitrile], 1.2 nM. The same measure, in the same setting: with `C[C@H](Nc1nc(N)nc(N)c1C#N)c1nc2cccc(S(=O)(=O)c3ccccc3)c2c(=O)n1-c1cccc(F)c1` [Compound 76, (S)-2,4-diamino-6-((1-(3-(3-fluorophenyl)-4-oxo-5-(phenylsulfonyl)-3,4-dihydroquinazolin-2-yl)ethyl)amino)pyrimidine-5-carbonitrile] the figure was 1.3 nM. As to `C[C@H](Nc1nc(N)nc(N)c1C#N)c1nc2cccc(S(=O)(=O)CCO)c2c(=O)n1-c1cccc(F)c1` [Compound 78, (S)-2,4-diamino-6-((1-(3-(3-fluorophenyl)-5-((2-hydroxyethyl)sulfonyl)-4-oxo-3,4-dihydroquinazolin-2-yl)ethyl)amino)pyrimidine-5-carbonitrile], the IC50 was 9 nM.
